{"source": "patent US20080234230A1", "about": "“Pharmaceutical Composition for Regulation of Pancreatic Juice Secretion Comprising a LPA Receptor Modulator” (ONO PHARMACEUTICAL CO., LTD., priority 2001, published 2008)", "key": {"[1]": {"tested_on": "pancreatic juice secretion", "assay": "Determination of the amount of pancreatic juice secreted in rats (Example 1)", "assay_type": "in vivo, rat", "experimental": "Male rats (8 to 9 week-old) fasting from the morning of the previous day were anesthetized by subcutaneous application of urethane (1.2 g/5 ml/kg) and polyethylene tubes were inserted into the arteria carotis communis and the femoral vein. The abdomen was cut open along the median line and the gastric pylorus was ligated. Then, a polyethylene tube was inserted into the bile duct at the hepatic portal portion, through which the tip of the tube was inserted into the pore opened in the duodenum intestine in order to return bile to the duodenum intestine. The origin of the hepatoapancreatic tube from the duodenum intestine was cut open, into which a tube was inserted in the same way as in the bile duct and led outside the body. Pure pancreatic juice was collected from the tube.\nThe drug was continuously administered through the femoral vein with saline. On the other hand, a saline containing 18:3-LPA, 18:3-LPC or 0.5% bovine serum albumin (Sigma, A-0281) as control (vehicle) was infused (1 ml/h) through the cervical vein, and pancreatic juice was collected for 1 hour.\nThe volume of the collected pancreatic juice was measured. In this connection, saline was infused through the cervical vein and the femoral vein 1 hour before administration of the drug, during which time the amount of pancreatic juice secreted was measured in order to ascertain that there was no considerable difference between individual animals in the pre-value to the pancreatic juice secretion in the individual animals."}, "amylase secretion": {"tested_on": "amylase secretion", "assay": "Determination of the amount of amylase secreted (Example 2)", "assay_type": "in vivo, rat", "experimental": "The pancreatic juice collected in Example 1 was diluted with Dulbecco's phosphate-buffered saline(−) (PBS(−)) at an appropriate dilution rate, of which the amylase activity was determined with a reagent of a Diacolor AMY Neorate (Ono Pharmaceutical) kit. To 10 μl of an amylase standard solution (Worthington Biochemical, diluted to 100 U/L to 6,400 U/L with PBS(−)) or the collected diluted pancreatic juice was added 50 μl of an enzyme reagent of the kit, and the mixture was incubated at 37° C. for 3 minutes. Then, after addition of 50 μl of a substrate reagent of the kit, the variation (Vmax) of optical density (OD) at 400 nm was monitored at 37° C. for 3 minutes (SPECTRAMAX 250). The amylase activity was calculated from an amylase standard curve to evaluate the effect of the subject substance by means of the secreted amount of the enzyme (U/h) obtained by the enzyme activity (concentration) (U/L) multiplied by the amount of pancreatic juice collected (L/h)."}, "lipase secretion": {"tested_on": "lipase secretion", "assay": "Determination of the amount of lipase secreted (Example 3)", "assay_type": "in vivo, rat", "settings": "rats", "experimental": "The pancreatic juice collected in Example 1 was diluted with saline at an appropriate dilution rate and the lipase activity was measured with a reagent contained in Liquitech Lipase Color kit (Roche Diagnostics). Then, 100 μl of a kit R-1 solution was added to 10 μl of a lipase standard solution (Worthington Biochemical; prepared to 1 U/L to 1,000 U/L with saline) or the collected diluted pancreatic juice, and the mixture was incubated at 37° C. for 5 minutes. Then, 60 μl of a kit R-2 solution was added and the variation (Vmax) of optical density (OD) at 570-700 nm was monitored at 37° C. for 3 minutes (SPECTRAMAX 250). The lipase activity of the pancreatic juice was calculated from a lipase standard curve to evaluate the effect of the subject substance by means of the secreted amount of the enzyme (U/h) obtained by the enzyme activity (concentration)(U/L) multiplied by the amount of pancreatic juice collected (L/h)."}, "[2]": {"tested_on": "cholecystokinin-induced pancreatic juice secretion", "assay": "Pancreatic juice secreted in rats by stimulation with cholecystokinin (CCK-8) (Example 4)", "assay_type": "in vivo, rat", "settings": "CCK-8 0.12 μg/kg/h", "experimental": "The pancreatic juice secreted in rats was collected in the same manner as described in Example 1. In order to ascertain the effect of LPA on excessive pancreatic juice secretion by CCK, an experiment was conducted according to a protocol as shown in Table 2. As CCK, CCK-8 (Sigma No. C-2175) was used.\nSaline was infused through the cervical vein and the femoral vein 1 hour before administration of the drug, during which time the amount of pancreatic juice secreted was measured in order to ascertain that there was no considerable difference between individual animals in the pre-value to the pancreatic juice secretion in the individual animals. After 1 hour infusion of saline, to the 18:3-LPA group and the 18:3-LPC group, were infused 3 mg/kg/h of 18:3-LPA and 10 mg/kg/h of 18:3-LPC, respectively, through the femoral vein. After lapse of 1 hour, CCK-8 was intravenously infused for stimulation through the cervical vein in order to examine the effect of LPA on the excessive pancreatic juice secretion. To the control group (vehicle) with no stimuli by CCK-8, 0.5% BSA in saline was administered through the cervical vein. On the other hand, saline was infused to the LPA control group (vehicle) through the femoral vein. In other groups, CCK-8 was administered through the cervical vein at a rate of 0.12 μg/kg/h and 1 ml/h. In the 18:3-LPA group and the 18:3-LPC group, 3 mg/kg/h of 18:3-LPA and 10 mg/kg/h of 18:3-LPC, respectively, were infused through the femoral vein. In the control group with no stimuli by CCK-8 and in the 18:3-LPA control group (vehicle), saline was administered through the femoral vein. One hour after the final administration (Admn.2), the volume of pancreatic juice collected was measured."}, "[3]": {"tested_on": "pancreatic juice secretion", "assay": "Effect of LPA receptor or EDG-2 agonist on pancreatic juice secretion in rats (Example 6)", "assay_type": "in vivo", "settings": "rat, intravenous infusion through the cervical vein", "experimental": "Using an LPA receptor or EDG-2 agonist, the effect of LPA on the pancreatic juice secretion was examined. An LPA receptor agonist 18:3-LPA was intravenously infused to a rat through the cervical vein, and the amount of pancreatic juice secreted was measured. In a group to which 18:3-LPA was administered, the pancreatic juice secretion was inhibited in rats."}, "[4]": {"tested_on": "pancreatic juice secretion", "assay": "Effect of LPA receptor or EDG-2 antagonist on pancreatic juice secretion in rats (Example 7)", "assay_type": "in vivo, rat", "experimental": "Using Compound 1 having the effect as a EDG-2 antagonist was confirmed in Example 5, the effect of LPA on the pancreatic juice secretion was examined.\nIn rats, (1) 18:3-LPA and (2) saline as a control (vehicle) for 18:3-LPA were respectively infused through the femoral vein, and (3) Compound 1 and (4) 5% bovine serum albumin/10% DMSO/saline as a control (vehicle) for Compound 1 were respectively infused through the cervical vein, at a rate of 0.5 ml/h for 1 hour.\nOn the other hand, saline was previously infused through the femoral vein and cervical vein (0.5 ml/h), and after one hour the pancreatic juice was collected in order to ascertain that there was no difference in the initial volumes of the secreted pancreatic juice in rats in each group."}, "[5]": {"settings": "10 mg/kg/h, 1 ml/h, i.v. infusion"}}, "note": "Where no end group is shown, it is not given here. The star is where a group is joined. SO3H = O=S(=O)(O)*", "data": [{"compound": "CC/C=C\\C/C=C\\C/C=C\\CCCCCCCC(=O)OCC(O)COP(=O)(O)O", "note": "(stereo not drawn) [18:3-LPA, 1-linolenoyl-lyzophosphatidic acid]", "values": [{"measurement": "dose at which the effect on pancreatic juice secretion reached approximately the maximum", "setting": "[1]; i.v. infusion 1 ml/h", "result": "~3", "unit": "mg/kg/h"}, {"measurement": "pancreatic juice secretion", "setting": "[1]; i.v. infusion 1 ml/h for 1 hr, 18:3-LPA 1, 3, 10 mg/kg/h, FIG. 1", "result": "decreased"}, {"measurement": "pancreatic juice secretion", "setting": "[1]; i.v. infusion 1 ml/h for 1 hr, 18:3-LPA 1, 3, 10 mg/kg/h, FIG. 1, listed as LPA", "result": "Dose-dependent inhibitory effect"}, {"measurement": "amount of amylase secreted", "setting": "amylase secretion; rats, 1, 3 or 10 mg/kg/h i.v. infusion, FIG. 2", "result": "reduced"}, {"measurement": "amount of lipase secreted", "setting": "lipase secretion; 3 and 10 mg/kg/h i.v. infusion, FIG. 3", "result": "reduced significantly"}, {"measurement": "pancreatic juice secretion increased by CCK-8", "setting": "[2]; 3 mg/kg/h intravenous infusion, FIG. 4", "result": "reduced the increased pancreatic juice secretion approximately to the control level"}, {"measurement": "pancreatic juice secretion", "setting": "[3]", "result": "inhibited"}, {"measurement": "basal secretion volume of pancreatic juice", "setting": "[4]; 18:3-LPA 3 mg/kg/h i.v. infusion", "result": "inhibition of the basal secretion volume was observed"}]}, {"compound": "CC/C=C\\C/C=C\\C/C=C\\CCCCCCCC(=O)OCC(O)COP(=O)([O-])OCC[N+](C)(C)C", "note": "(stereo not drawn) [18:3-LPC, 1-linolenoyl lisophosphatidylcholine, reference compound]", "values": [{"measurement": "pancreatic juice secretion", "setting": "[1]; [5]", "result": "no inhibitory effect"}, {"measurement": "amylase secretion", "setting": "amylase secretion; rats, 10 mg/kg/h, 1 ml/h, i.v. infusion", "result": "no inhibitory effect"}, {"measurement": "lipase secretion", "setting": "lipase secretion; [5]", "result": "no inhibitory effect"}, {"measurement": "pancreatic juice secretion induced by CCK-8", "setting": "[2]; 10 mg/kg/h, 1 ml/h, intravenous infusion", "result": "no inhibitory effect"}]}, {"compound": "COC(=O)CCSCc1ccc(-c2onc(C)c2NC(=O)OC(C)c2ccccc2Cl)cc1", "note": "(stereo not drawn) [Compound 1, methyl 3-({4-[4-({[1-(2-chlorophenyl)ethoxy]carbonyl}amino)-3-methyl-5-isoxazolyl]benzyl}sulfanyl)propanoate]", "values": [{"measurement": "recovery of pancreatic juice secretion from the inhibition by 18:3-LPA", "setting": "[4]; Compound 1 administered together with 18:3-LPA (3 mg/kg/h), FIG. 5", "result": "significantly recovered"}, {"measurement": "basal (at resting) secretion volume of pancreatic juice vs control group (vehicle)", "setting": "[4]; Compound 1 alone, 10 mg/kg/h i.v. infusion, after one hour, FIG. 5", "result": "no difference"}]}, {"compound": "CCK-8: cholecystokinin, CCK-8 (Sigma No. C-2175), used to stimulate pancreatic juice secretion (DY(SO3H)MGWMDF-NH2; UniProt P06307 96-103, looked up)", "values": [{"measurement": "secretion of pancreatic juice (stimulation)", "setting": "[2]; 1 ml/h through the cervical vein", "result": "markedly increased"}]}]}
